Tests used:
obese animals = conditions: cited from earlier work
[1] = tested on: pancreatic β cells (islets of Langerhans); assay: Glucose-stimulated insulin secretion from isolated islets of Langerhans; format: cell-based, mouse; conditions: for insulin secretion on stimulation with glucose: 24 hr with 10 or 100 nM GW501516, 16.7 mM glucose, 1 hr
Experimental: Animals, 6-week-old male C57BL/6J and Lepr^db/Lepr^db mice, were purchased from Clea Japan, Inc., and kept under the following conditions: room temperature, 25° C.; humidity, 60±10%; and 12 hr light/dark cycles (light period, 08:00 to 20:00). All animals were tamed for one week and then subjected to tests. The animals were given free access to food (commercial lab chow, pellet form CE-2, Clea Japan, Inc.) and water. Male C57BL/6J and Lepr^db/Lepr^db mice were used. After clamping the common bile duct at a point close to the duodenum outlet under Nembutal anesthetization, 1 mg/mL collagenase (Wako Pure Chemical Industries, Ltd., Japan) was injected into the common bile duct at a liver side. The pancreas was taken out and incubated at 37° C. for 13 min. Thereafter, Hank's balanced salt solution was added, the pancreas tissue suspension was shaken and then centrifuged to remove supernatants. The pancreas tissue was resuspended in Hank's balanced salt solution, and then subjected to filtration followed by addition of Hank's balanced salt solution to make the tissue suspension volume 35 mL. The resultant tissue suspension was mixed and then allowed to stand for 5 min. Supernatants were removed with an aspirator except that 5 mL of the solution was retained, and the remaining solution was remixed with Hank's balanced salt solution to make the tissue suspension volume 35 mL. […] After incubation in a Krebs-Ringer bicarbonate buffer (KRBB, 119 mM NaCl, 4.74 mM KCl, 2.54 mM CaCl2, 1.19 mM MgCl2, 1.19 mM KH2PO4, 25 mM NaHCO3, and 10 mM HEPES, pH 7.4) containing 2.8 mM glucose at 37° C. for 1 hr, the islets of Langerhans were dispensed in a 24-well plate at 10 islets per well, and incubated in KRBB containing 2.8, 5.6 or 16.7 mM glucose, respectively, at 37° C. for 1 hr. Each supernatant sample collected was assayed for insulin with rat insulin [^125I] Biotrak Assay System (Amersham).

Structure (SMILES): Cc1cc(SCc2sc(-c3ccc(C(F)(F)F)cc3)nc2C)ccc1OCC(=O)O [GW501516, 2-{2-methyl-4-[({4-methyl-2-[4-(trifluoromethyl)phenyl]-1,3-thiazol-5-yl}methyl)thio]phenoxy}acetic acid]
- effect on diabetes (plasma glucose and blood insulin levels) (obese animals; genetically obese animals): improve diabetes as revealed by the decrease in plasma glucose and blood insulin levels
- effect on obesity and insulin resistance (obese animals; obese animals induced by high-fat dieting): ameliorate obesity and insulin resistance
- dose dependence of insulin secretion when stimulated with elevated glucose levels ([1]; 10 or 100 nM GW501516, elevated glucose levels): increased dose-dependently insulin secretion
- insulin secretion on stimulation with glucose ([1]; islets from C57BL/6J mice): significant insulin secretion
- insulin secretion on stimulation with glucose ([1]; islets from Lepr^db/Lepr^db mice): significant insulin secretion

Source: US20080207710A1, “Insulin Secretagogue Drugs” (TOUDAI TLO, LTD., priority 2004, published 2008)
